Experimental data: patent US20220167645A1, “METHODS OF IMPROVING FISH FEED CONVERSION RATE AND SURVIVAL” (AQUINOVO LTD., priority 2019, published 2022)
Numbered stars: 1 amine (or outer) side, 2 acyl side, 3 side chain; on linkers, the order of the positions; unused ones are H or OH. Square brackets hold non-standard residues; d marks the D form. Suc = O=C(CCC(=O)[*:2])[*:1]; NMeV = CN[C@H](C(=O)O)C(C)C; βAla = NCCC(=O)O

Tests used:
Tilapia fish [1] = format: in vivo
Excerpt: At the end of each of the experiments described in examples 2, 3 and 5 (#1, #2, #3), a sample of fish from each treatment group was sacrificed and dissected for measurements of internal parts as indicated in Table 9.

Tilapia fish [2] = test: Experiment #2: tilapia fed AN6-coated feed 60-150 dph (growth, biomass, FCR, intestine weight); format: in vivo; conditions: 5 mgAN6/Kg feed from 60 dph for 150 days
[3] = 10 ppm AN6, experiments 2 & 3, vs control

Q: With “Succ-Asp-Ser- D-Trp -N(Me)Val-βAla-Leu-Met-NH2 (Suc-DS[dW][NMeV][βAla]LM-NH2; SMILES CSCC[C@H](NC(=O)[C@H](CC(C)C)NC(=O)CCNC(=O)[C@H](C(C)C)N(C)C(=O)[C@@H](Cc1c[nH]c2ccccc12)NC(=O)[C@H](CO)NC(=O)[C@H](CC(=O)O)NC(=O)CCC(=O)O)C(N)=O) [AN6]” as the substance, how does the female fillet ratio (Tilapia fish [1]; [3]) read?
A: The female fillet ratio was “+3.38%”.

Q: And the male fillet ratio (Tilapia fish [1]; [3])?
A: The male fillet ratio was “+5.6%”.

Q: What about the “gonad size and histology” value (Tilapia fish [1]; in vivo) of the same substance?
A: The value was “No significant effect”.

Q: And the “kidney, liver and fat weight and rates” value (Tilapia fish [1]; in vivo)?
A: Its value is “no effect”.

Q: What about the FCR (Tilapia fish [2]) of the same substance?
A: The FCR was “improved FCR significantly”.

Q: What about the growth (Tilapia fish [2]) of the same substance?
A: The growth was “not sufficient to improved growth”.
